Experimental data as given in ChEMBL document CHEMBL1129009, “New aza-thioxanthones: Synthesis and cytotoxicity” (Bioorg Med Chem Lett, 1996).

How the values were obtained:
Format in all cases: functional, cell-based
Details in all cases: Homo sapiens
HOP-92 = test: Compound was evaluated for cytotoxicity against non small lung cancer HOP-92 cell line
MOLT-4 = test: Compound was evaluated for cytotoxicity against leukemic MOLT-4 cell lines
MCF7 = test: Compound was evaluated for cytotoxicity against breast cancer MCF-7 cell lines
SK-OV-3 = test: Compound was evaluated for cytotoxicity against ovarian carcinoma […] cell line
SW-620 = test: Compound was evaluated for cytotoxicity against colon SW-620 cell line

Row | SMILES | IC50 (HOP-92) | IC50 (MOLT-4) | IC50 (MCF7) | IC50 (SK-OV-3) | IC50 (SW-620)
1 | O=C(CN1CCCC1)Nc1ccc2sc3ccccc3c(=O)c2n1 | 27.3 µM | 1.91 µM | 27.2 µM | 20.6 µM | 4.96 µM
2 | O=C(CCN1CCOCC1)Nc1ccc2sc3ccccc3c(=O)c2n1 | 45.3 µM | – | 49.8 µM | 47.6 µM | 27.3 µM
3 | O=C(CCN1CCCCC1)Nc1ccc2sc3ccccc3c(=O)c2n1 | 0.41 µM | 2.56 µM | 15.9 µM | 23.2 µM | 8.31 µM
4 | O=C(CCN1CCCC1)Nc1ccc2sc3ccccc3c(=O)c2n1 | 18.1 µM | 3.42 µM | 17 µM | 5.23 µM | 15.5 µM
5 | CCN(CC)CCC(=O)Nc1ccc2sc3ccccc3c(=O)c2n1 | – | 7.77 µM | 13.3 µM | 20.5 µM | 12 µM
6 | O=C(CN1CCCCC1)Nc1ccc2sc3ccccc3c(=O)c2n1 | 15.1 µM | 2.69 µM | 19.4 µM | 21.4 µM | 5.42 µM
